No end group written: not given here. *: point of attachment. Biotin = O=C1N[C@H]2[C@H](CS[C@H]2CCCCC(=O)*)N1

The test system of the assay is causative β-amyloid (Aβ42). Kind of assay: Sandwich ELISA detection of β-amyloid using biotinylated amino acid dimers instead of secondary antibody (absorbance at 450 nm). Format: binding. The note with it: Aβ40 vs Aβ42, dimer 100 μM, FIG. 2. As for the experimental part:
Detection of β-amyloid was carried out using the biotinylated amino acid dimers prepared in Example 1, as follows.
Normal β-amyloid (Aβ40) and causative β-amyloid (Aβ42) were obtained from rPeptide (at Bogart, Ga., USA), and monoclonal antibodies specific for the β-amyloids(primary antibodies) were obtained from Covance (France). Each of the primary antibodies was mixed with sodium carbonate (pH 9.2) and the solution was added to a 96-well microplate for coating the wells (high-affinity F series, available from
NUNC, and then the microplate was washed with PBS or distilled water.
Meanwhile, each β-amyloid was dissolved in a sodium carbonate buffer (pH 9.4, Pierce) to a concentration of 1.0 mg/mL. For dilution, 100 μL of the β-amyloid solution was mixed with 9,900 μL of PBS. Each 200 μL of the resulting β-amyloid solution was dispensed into the wells of the 96-well microplate, and incubated for 4-hr at a room temperature so that β-amyloid binds to the primary antibody. Then, the plate was washed five times with PBS buffer (Pierce, at Rockford, Ill., USA), and 100 μL of the biotinylated amino acid dimer solution (amino acid dimer, dissolved in PBS to a concentration of 100 μM) was added to allow reaction for 1 hr. Each well was washed five times with PBS buffer, and 200 μL of streptavidin-HRP solution (diluted by 1:10,000, Pierce, at Rockford, Ill., USA) was added to allow reaction over 1 hr. After the reaction was completed, the plate was washed three times with PBS buffer, 100 μL of TMB substrate solution (KPL, USA) was added to allow reaction for 10-minute under a dark condition. Then, 50 μL of 15% hydrochloric acid was added to stop the reaction, and the absorbance of the reaction mixture at 450 nm was measured using a microplate reader (Bio-RAD, iMark).

As to Biotin-Arg-Ile [Dimer 3], the “difference of absorbance between Aβ40 and Aβ42” value (“difference” for short) is recorded as “very significant”.

On to Biotin-Ala-Arg [Dimer 1], for which the “difference” value is given as “very significant”.

For Biotin-Arg-Leu [Dimer 5], the “difference” value was “very significant”.

With Biotin-Cys-Ser [Dimer 13], the “difference” value is “very significant”.
